Measured values published in PubChem BioAssay (NCI).
Several values for one entry are separate records, joined by “and”; a condition that tells them apart may be missing. Equal entries are not always repeated.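 The compound was tested at five concentrations on cells cultured in 96-well plates, with a 48-hour exposure period. GI50 is the concentration that inhibits growth by half. At the TGI there is no net growth.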

Tests used:
Experiment in all cases: NCI tumour cell line growth inhibition, 48 h
[1] = system: SF-539 CNS
[2] = system: HOP-62 NSCLC
[3] = system: A549 NSCLC
[4] = system: HCT-116 colon
[5] = system: SF-295 CNS
[6] = system: M19-MEL melanoma
[7] = system: U251 CNS
[8] = system: DLD-1 colon
[9] = system: COLO 205 colon
[10] = system: SK-OV-3 ovarian
[11] = system: OVCAR-4 ovarian
[12] = system: CCRF-CEM leukemia
[13] = system: HL-60(TB) leukemia
[14] = system: HCT-15 colon
[15] = system: HCC-2998 colon
[16] = system: NCI-H226 lung
[17] = system: 786-0 renal
[18] = system: HOP-18 NSCLC
[19] = system: SNB-19 CNS
[20] = system: OVCAR-8 ovarian
[21] = system: MOLT-4 leukemia
[22] = system: IGROV1 ovarian
[23] = system: TK-10 renal
[24] = system: OVCAR-3 ovarian
[25] = system: NCI-H522 lung
[26] = system: OVCAR-5 ovarian
[27] = system: NCI-H460 lung
[28] = system: LXFL 529 NSCLC
[29] = system: CAKI-1 renal
[30] = system: SK-MEL-5 melanoma
[31] = system: EKVX NSCLC
[32] = system: RPMI-8226 leukemia
[33] = system: M14 melanoma
[34] = system: DMS 114 small cell lung
[35] = system: SNB-78 CNS
[36] = system: KM12 colon
[37] = system: SN12C renal
[38] = system: ACHN renal
[39] = system: K-562 leukemia
[40] = system: KM20L2 colon
[41] = system: SF-268 CNS
[42] = system: UACC-62 melanoma
[43] = system: HT29 colon
[44] = system: A498 renal
[45] = system: DMS 273 small cell lung
[46] = system: SK-MEL-2 melanoma
[47] = system: UO-31 renal
[48] = system: LOX IMVI melanoma
[49] = system: NCI-H23 lung
[50] = system: MALME-3M melanoma
[51] = system: UACC-257 melanoma
[52] = system: SW-620 colon
[53] = system: HOP-92 NSCLC
[54] = system: RXF 393 renal
[55] = system: SNB-75 CNS
[56] = system: SK-MEL-28 melanoma
[57] = system: SR leukemia

`O=C(/C=C/c1ccccc1)CC(=O)CCC(=O)Nc1ccc(Cl)cc1` gave a TGI [1] greater than 100 µM, a TGI [2] greater than 100 µM and a TGI [3] greater than 100 µM. For the same compound, the TGI [4] was greater than 100 µM, the TGI [5] was greater than 100 µM and the TGI [6] was greater than 100 µM. The TGI [7] was greater than 100 µM, the TGI [8] was greater than 100 µM and the TGI [9] was greater than 100 µM. For the same compound, the TGI [10] was greater than 100 µM, the TGI [11] was greater than 100 µM and the TGI [12] was greater than 100 µM. The TGI [13] was greater than 100 µM, the TGI [14] was greater than 100 µM and the TGI [15] was greater than 100 µM. For the same compound, the TGI [16] was greater than 100 µM, the TGI [17] was greater than 100 µM and the TGI [18] was greater than 100 µM. The TGI [19] was greater than 100 µM, the TGI [20] was greater than 100 µM and the TGI [21] was greater than 100 µM. It also gave a TGI [22] greater than 100 µM, a TGI [23] greater than 100 µM and a TGI [24] greater than 100 µM. It also gave a TGI [25] greater than 100 µM, a TGI [26] greater than 100 µM and a TGI [27] greater than 100 µM. The TGI [28] was greater than 100 µM, the TGI [29] was greater than 100 µM and the TGI [30] was greater than 100 µM. The TGI [31] was greater than 100 µM, the TGI [32] was greater than 100 µM and the TGI [33] was greater than 100 µM. It also gave a TGI [34] greater than 100 µM, a TGI [35] greater than 100 µM and a TGI [36] greater than 100 µM. It also gave a TGI [37] greater than 100 µM, a TGI [38] greater than 100 µM and a TGI [39] greater than 100 µM. It also gave a TGI [40] greater than 100 µM, a TGI [41] greater than 100 µM and a TGI [42] greater than 100 µM. It also gave a TGI [43] greater than 100 µM, a TGI [44] greater than 100 µM and a TGI [45] greater than 100 µM. The TGI [46] was greater than 100 µM, the TGI [47] was greater than 100 µM and the TGI [48] was greater than 100 µM. For the same compound, the TGI [49] was greater than 100 µM, the TGI [50] was greater than 100 µM and the TGI [51] was greater than 100 µM. For the same compound, the TGI [52] was greater than 100 µM.
In the case of `CCCSc1nc(-c2ccc(OC)cc2)c(C#N)c(=O)n1C1OC(COC(C)=O)C(OC(C)=O)C(OC(C)=O)C1OC(C)=O` (centres undefined), the TGI [1] is reported as greater than 100 µM, the GI50 [2] is reported as > 100 µM and 30.1 µM and the TGI [2] is reported as greater than 100 µM. The GI50 [4] was greater than 100 µM, the TGI [4] was greater than 100 µM and the GI50 [5] was > 100 µM and 24.3 µM. The TGI [5] was > 100 µM and 92.6 µM, the TGI [6] was greater than 100 µM and the GI50 [7] was > 100 µM and 17.9 µM. For the same compound, the TGI [7] was > 100 µM and 34.2 µM, the TGI [9] was greater than 100 µM and the GI50 [53] was > 100 µM and 28.2 µM. For the same compound, the TGI [53] was > 100 µM and 93.7 µM, the TGI [10] was greater than 100 µM and the TGI [11] was greater than 100 µM. The TGI [12] was greater than 100 µM, the GI50 [54] was > 100 µM and 17.2 µM and the TGI [54] was > 100 µM and 61.2 µM. The TGI [13] was greater than 100 µM, the TGI [55] was greater than 100 µM and the GI50 [19] was > 100 µM and 45.4 µM. The TGI [19] was greater than 100 µM, the TGI [21] was greater than 100 µM and the GI50 [22] was > 100 µM and 43.4 µM. It also gave a TGI [22] greater than 100 µM, a TGI [56] greater than 100 µM and a TGI [57] greater than 100 µM. For the same compound, the GI50 [24] was > 100 µM and 35.3 µM, the TGI [24] was greater than 100 µM and the TGI [25] was greater than 100 µM. The GI50 [26] was > 100 µM and 21.2 µM, the TGI [26] was > 100 µM and 48.8 µM and the TGI [27] was greater than 100 µM. For the same compound, the TGI [28] was greater than 100 µM, the TGI [32] was greater than 100 µM and the GI50 [33] was > 100 µM and 23.1 µM. The TGI [33] was > 100 µM and 50.2 µM, the TGI [34] was greater than 100 µM and the TGI [35] was greater than 100 µM. The TGI [36] was greater than 100 µM, the TGI [38] was greater than 100 µM and the TGI [39] was greater than 100 µM. It also gave a TGI [40] greater than 100 µM, a TGI [41] greater than 100 µM and a TGI [42] greater than 100 µM. The TGI [43] was greater than 100 µM, the GI50 [44] was 20.9 µM and the TGI [44] was > 100 µM and 78.2 µM. The TGI [46] was greater than 100 µM, the GI50 [47] was > 100 µM and 36.9 µM and the TGI [47] was greater than 100 µM. The TGI [49] was greater than 100 µM, the GI50 [50] was > 100 µM and 32.3 µM and the TGI [50] was greater than 100 µM. For the same compound, the GI50 [51] was > 100 µM and 22.4 µM and the TGI [51] was > 100 µM and 56.6 µM.
With `O=C(O)c1ccc(C2C(=O)N[C@@H]3CCC[C@H]23)cc1` (some centres undefined) the TGI [1] was greater than 100 µM, the TGI [2] was greater than 100 µM and the TGI [3] was greater than 100 µM. For the same compound, the TGI [4] was greater than 100 µM, the TGI [5] was greater than 100 µM and the TGI [6] was greater than 100 µM. It also gave a TGI [7] greater than 100 µM, a TGI [8] greater than 100 µM and a TGI [9] greater than 100 µM. The TGI [10] was greater than 100 µM, the TGI [11] was greater than 100 µM and the TGI [12] was greater than 100 µM. The TGI [54] was greater than 100 µM, the TGI [13] was greater than 100 µM and the TGI [14] was greater than 100 µM. The TGI [55] was greater than 100 µM, the TGI [15] was greater than 100 µM and the TGI [16] was greater than 100 µM. It also gave a TGI [17] greater than 100 µM, a TGI [18] greater than 100 µM and a TGI [19] greater than 100 µM. It also gave a TGI [20] greater than 100 µM, a TGI [21] greater than 100 µM and a TGI [22] greater than 100 µM. It also gave a TGI [23] greater than 100 µM, a TGI [56] greater than 100 µM and a TGI [24] greater than 100 µM. It also gave a TGI [25] greater than 100 µM, a TGI [26] greater than 100 µM and a TGI [27] greater than 100 µM. For the same compound, the TGI [28] was greater than 100 µM, the TGI [29] was greater than 100 µM and the TGI [30] was greater than 100 µM. It also gave a TGI [31] greater than 100 µM, a TGI [32] greater than 100 µM and a TGI [33] greater than 100 µM. It also gave a TGI [34] greater than 100 µM, a TGI [35] greater than 100 µM and a TGI [36] greater than 100 µM. For the same compound, the TGI [39] was greater than 100 µM, the TGI [40] was greater than 100 µM and the TGI [41] was greater than 100 µM. The TGI [42] was greater than 100 µM, the TGI [43] was greater than 100 µM and the TGI [44] was greater than 100 µM. It also gave a TGI [45] greater than 100 µM, a TGI [46] greater than 100 µM and a TGI [47] greater than 100 µM. It also gave a TGI [48] greater than 100 µM, a TGI [49] greater than 100 µM and a TGI [50] greater than 100 µM. It also gave a TGI [51] greater than 100 µM and a TGI [52] greater than 100 µM.
`COc1ccc(CN2CCC/C=C/CC(Cl)(Cl)C2=O)cc1` was tested, and the TGI [1] was greater than 100 µM, the TGI [2] was greater than 100 µM and the TGI [3] was greater than 100 µM. For the same compound, the TGI [4] was greater than 100 µM, the TGI [5] was 68.6 µM and the TGI [6] was 95.2 µM. For the same compound, the TGI [7] was greater than 100 µM, the TGI [8] was greater than 100 µM and the TGI [9] was 41.2 µM. The TGI [53] was 62.5 µM, the TGI [10] was greater than 100 µM and the TGI [11] was 98.8 µM. The TGI [12] was greater than 100 µM, the TGI [54] was 78.7 µM and the TGI [13] was 69.2 µM. It also gave a TGI [14] greater than 100 µM, a TGI [55] of 64.8 µM and a TGI [15] greater than 100 µM. It also gave a TGI [17] greater than 100 µM, a TGI [18] greater than 100 µM and a TGI [19] of 95.4 µM. For the same compound, the TGI [20] was greater than 100 µM, the TGI [21] was 68 µM and the TGI [22] was greater than 100 µM. The TGI [23] was greater than 100 µM, the TGI [56] was greater than 100 µM and the TGI [57] was 68.8 µM. The TGI [24] was greater than 100 µM, the TGI [25] was 59.4 µM and the TGI [26] was greater than 100 µM. It also gave a TGI [27] greater than 100 µM, a TGI [28] greater than 100 µM and a TGI [29] greater than 100 µM. It also gave a TGI [30] of 35 µM, a TGI [32] of 69.4 µM and a TGI [33] of 57 µM. The TGI [34] was 71.3 µM, the TGI [36] was greater than 100 µM and the TGI [37] was greater than 100 µM. The TGI [38] was 78.8 µM, the TGI [39] was greater than 100 µM and the TGI [40] was greater than 100 µM. The TGI [41] was greater than 100 µM, the TGI [42] was greater than 100 µM and the TGI [43] was greater than 100 µM. For the same compound, the TGI [44] was 73.7 µM, the TGI [45] was greater than 100 µM and the TGI [46] was 44.8 µM. The TGI [47] was 57.4 µM, the TGI [48] was greater than 100 µM and the TGI [49] was 99.5 µM. For the same compound, the TGI [50] was 87.7 µM and the TGI [52] was greater than 100 µM.
